In PubChem BioAssay (NCI) one finds GI50 and TGI data, which are given here for 35 compounds.

The subject of this test is MDA-MB-468 breast. In words: NCI tumour cell line growth inhibition, 48 h.

Values joined by “and” are separate entries in the source; they are usually repeats but may differ in a detail not shown here. Equal entries are not always repeated.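 Cells were grown in 96-well plates and exposed to each compound for 48 hours at five concentrations; endpoints were interpolated linearly between bracketing concentrations, or set to the highest concentration if not reached. Here, GI50 denotes the concentration required for 50% inhibition of growth. TGI is the concentration that stops growth completely.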

With `CC(=Nc1ccc(S(N)(=O)=O)cc1)c1c(O)[nH]c2ccccc12`, the GI50 is over 25000 nM and the TGI is over 25000 nM.
Take `COc1cccc(COc2cc(-n3cnc4ccccc43)sc2C(N)=O)c1`: the GI50 was 717 nM and the TGI was 6170 nM.
Regarding `COc1cccc2c(=O)c3c(sc12)c(NCCCNCCO)nc1ccccc13`, the GI50 is 1530 nM and the TGI is 3130 nM.
On to `CCOc1ccc(Nc2c3ccccc3nc3ccccc23)cc1`, for which the GI50 was 258 nM and 325 nM; the TGI is 987 nM and 2320 nM.
Consider `COc1ccc(F)c(F)c1C(=O)c1cnc(NC2CCN(S(C)(=O)=O)CC2)nc1N`, for which the GI50 was 1370 nM and 687 nM; the TGI is 3540 nM and 2700 nM.
With `O=C1/C(=C/c2ccc([N+](=O)[O-])cc2)COc2ccc(O)cc21`, the GI50 is 2230 nM and the TGI stood at 7600 nM.
Take `Fc1ccc2nc(-c3cc(-c4ccc5c(c4)OCO5)n[nH]3)[nH]c2c1`: the GI50 is 3580 nM and the TGI was over 80800 nM.
The matching figures for `Nn1c(=O)n(-c2cccc(C(F)(F)F)c2)c(=O)c2cc(-c3ccc(F)cc3F)ccc21`: 1990 nM and 6210 nM.
In the case of `CCNCCNc1cc(-c2ccc(C#N)cc2)c(C#N)c2nc3ccccc3n12`, the GI50 was 1790 nM and the TGI was found to be 4150 nM.
The matching figures for `Clc1nncc2sc(-c3ccccc3)nc12`: 14400 nM and 69500 nM.
`CN(C)S(=O)(=O)c1oc(-c2ccccc2)nc1C#N`: the GI50 was 12300 nM and the TGI was 32900 nM.
`O=[N+]([O-])c1ccc(-c2cc3c(Nc4ccc(Cl)c(C(F)(F)F)c4)ncnc3s2)cc1`: the GI50 was 1640 nM and the TGI came out at 6030 nM.
The matching figures for `CCN(CC)c1ccc(/C=C/C2=[N+](C)c3ccccc3C2(C)C)c(C)c1`: under 19 nM and 181 nM.
As for `O=C(/C=C/c1cccc(O)c1)c1cccc(-n2cc(-c3ccc4ccccc4c3)[nH]c2=O)c1`, the GI50 was 2860 nM and the TGI came out at 12800 nM.
The matching figures for `COc1ccc(C2=C(N3CCc4ccccc43)C(=O)NC2=O)cc1`: 18000 nM and over 25000 nM.
Consider `COc1ccc(-c2cnoc2-c2cc(OC)c3c(c2)OCCO3)cc1`, for which the GI50 was 29.6 nM and the TGI came out at 1030 nM.
As to `CCCCCCCCCCCCCC[n+]1cccc(C(N)=O)c1`, the GI50 is 567 nM and the TGI amounted to 2560 nM.
With `O=C(c1cccs1)C1NO[N+]([O-])=C1c1cccs1` (stereo not given), the GI50 was 1690 nM and the TGI is 3380 nM.
The matching figures for `COc1ccc(C(=O)c2nc3ccccc3n2CC(=O)c2ccc(Cl)cc2)cc1`: 2080 nM and 11500 nM.
With `Cc1ccc(-n2nc(C(C)(C)C)cc2NC(=O)NCc2cc(F)ccc2Oc2ccc3c(cnn3CCO)c2)cc1`, the GI50 was 6550 nM and 3580 nM; the TGI is over 65900 nM.
Consider `c1cnn2ncc(-c3ccnc(Nc4ccc5c(c4)OCCO5)n3)c2c1`, for which the GI50 is 59.4 nM and the TGI came out at 180 nM.
On the same counts, the results for `COc1ccc(Nc2nccc(N3CCN(c4c5ccc(Cl)cc5nc5ccc(OC)cc45)CC3)n2)cc1` are 2690 nM and 23000 nM.
As for `CCN(CC)CCOc1ccc(C(=C(C)c2ccc(OC)cc2)c2ccc(OCCN(CC)CC)cc2)cc1`, the GI50 was 830 nM and the TGI came to 1860 nM.
As for `CCOC(=O)N1CCN(CCCCCOc2ccccc2C2CCCCC2)CC1`, the GI50 is 2410 nM and the TGI was found to be 8460 nM.
For `CC(C)[O-].CC(C)[O-].CN(CCN(C)Cc1cc(F)cc(F)c1[O-])Cc1cc(F)cc(F)c1[O-].[Ti+4]`, the GI50 is 542 nM and the TGI came to 2880 nM.
The matching figures for `OCc1ccc(N2CCOCC2)cc1Cl`: 732 nM and 3100 nM.
On the same counts, the results for `Nc1cc(-c2ccc(Cl)cc2)nn1-c1nnc(/C=C/c2ccco2)c(=O)[nH]1` are 3080 nM and 22200 nM.
Turning to `CCn1c(-c2nonc2N)nc2ccncc21`, the GI50 is over 25000 nM and the TGI is over 25000 nM.
Take `[2H]c1nc(=Nc2cc(NC(=O)C=C)c(N(C)CCN(C)C)cc2OC)[nH]c(-c2cn(C([2H])([2H])[2H])c3ccccc23)c1[2H]`: the GI50 was 28.8 nM and the TGI came to 957 nM.
In the case of `c1ccc(-c2nc(N3CCCNCC3)c3nc(-c4ccccc4)oc3n2)cc1`, the GI50 was 1720 nM and the TGI is 3370 nM.
In the case of `Clc1ccc2c(c1)N(c1ncnc3ccc(-c4cnc5[nH]ncc5c4)cc13)CC2`, the GI50 was 217 nM and the TGI is 1470 nM.
Turning to `CC(C)(C)c1ccc(C(=O)Nc2sc3c(c2C(N)=O)CCC(O)C3)cc1` (stereo not given), the GI50 is 3010 nM and the TGI was 12600 nM.
In the case of `CC(C)Oc1ccc(C(=O)Cn2ccnc2)cc1-n1c(CN2CCN(C(=O)COc3ccc(Cl)cc3)CC2)nc2ccccc2c1=O`, the GI50 was 9950 nM and the TGI was 35900 nM.
Regarding `COc1cc2nc(-c3ccc(C(F)(F)F)cc3)cc(OCCCN3CCCC3)c2cc1OC`, the GI50 is 1090 nM and the TGI amounted to 3720 nM.
In the case of `COc1ccc(-n2nc(C)c3c(Nc4ccc(NC(=O)Nc5ccc(Cl)c(C(F)(F)F)c5)cc4)ncnc32)cc1`, the GI50 was 1880 nM and the TGI was determined as 4620 nM.
